Test results: PMC9815933, “Computational Drug Repurposing Approach to Identify Novel Inhibitors of ILK Protein for Treatment of Esophageal Squamous Cell Carcinoma” (Journal of Oncology, 2022)

Biological target: T1, integrin-linked kinase (ILK) (Homo sapiens, UniProt Q13418)
T1 sequence (Q13418 1-452): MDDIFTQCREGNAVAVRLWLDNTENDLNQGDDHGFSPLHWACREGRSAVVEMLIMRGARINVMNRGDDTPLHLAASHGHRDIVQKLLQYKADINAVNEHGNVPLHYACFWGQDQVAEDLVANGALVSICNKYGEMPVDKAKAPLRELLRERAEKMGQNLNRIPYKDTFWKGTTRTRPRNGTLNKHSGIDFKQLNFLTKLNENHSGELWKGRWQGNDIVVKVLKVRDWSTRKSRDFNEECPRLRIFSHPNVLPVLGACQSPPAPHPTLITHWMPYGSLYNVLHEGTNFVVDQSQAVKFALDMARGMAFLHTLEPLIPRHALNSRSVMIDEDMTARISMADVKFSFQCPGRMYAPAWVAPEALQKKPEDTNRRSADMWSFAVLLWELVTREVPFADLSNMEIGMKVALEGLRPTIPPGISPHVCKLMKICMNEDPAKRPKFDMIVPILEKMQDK
Assay: SPR (Biacore S200), ILK immobilized on CM5 chip
Assay type: binding

Row | SMILES | Kd [nM]
1 | COc1ccc(N=Nc2c(N)n[nH]c2N)cc1 [ILK-IN-3, reference compound] | 2640
2 | COc1cc([C@@H]2c3cc4c(cc3[C@@H](O[C@@H]3O[C@@H]5CO[C@@H](c6cccs6)O[C@H]5[C@H](O)[C@H]3O)[C@H]3COC(=O)[C@H]23)OCO4)cc(OC)c1O [d2, Teniposide] | 1790
3 | Cc1cn(-c2cc(NC(=O)c3ccc(C)c(Nc4nccc(-c5cccnc5)n4)c3)cc(C(F)(F)F)c2)cn1 [d1, Nilotinib] | 6410
